Measured values from patent US4652552A, “Tetrapeptide methyl ketone inhibitors of viral proteases” (priority 1984, dated 1987).
Non-standard residues stand in square brackets, D forms with d. Residues, ends and D or L forms follow the SMILES beside them. ξ: configuration not given here. *: point of attachment. ξL = CC(C)CC(N)C(=O)O; CH2Cl = ClC*

Assays:
chymotrypsin = chymotrypsin (Bos taurus, UniProt P00766); conditions: inhibitor concentration 600 μg/mL; cited from earlier work
[1] = test system: human poliomyelitis virus type 2 or human rhinovirus type 1A; assay type: cell-based; design: key to Protease-Inhibiting Activity of Selected Peptide Chloromethyl Ketones: Activity: -: no activity; +/-: low activity; +: active at 100 μg/mL; ++: active at 50 μg/mL; +++: active at 10 μg/mL; ++++: active at <5 μg/mL
[2] = test system: human poliomyelitis virus type 2; assay type: cell-based; conditions: test concentration 100 μg/mL
human rhinovirus type 1A = assay type: cell-based; conditions: test concentration 100 μg/mL
subtilisin BPN' = molecular target: T1, subtilisin BPN' (Bacillus amyloliquefaciens, UniProt P00782); conditions: cited from earlier work
T1 sequence (P00782 108-382): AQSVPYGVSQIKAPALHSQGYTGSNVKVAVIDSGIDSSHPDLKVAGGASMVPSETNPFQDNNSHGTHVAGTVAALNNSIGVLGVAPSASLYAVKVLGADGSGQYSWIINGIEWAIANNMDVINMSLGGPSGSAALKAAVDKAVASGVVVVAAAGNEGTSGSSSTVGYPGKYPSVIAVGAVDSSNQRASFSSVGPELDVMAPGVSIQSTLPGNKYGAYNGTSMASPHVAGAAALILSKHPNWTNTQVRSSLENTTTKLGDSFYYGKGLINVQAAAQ

Poliovirus type 2 = assay type: cell-based
rhinovirus type 1A = assay type: cell-based

**Q.** Which inhibition of chymotrypsin (chymotrypsin) does the source give for `CC(=O)N[C@@H](CC(C)C)C(=O)N[C@@H](CC(C)C)C(=O)N[C@@H](Cc1ccccc1)C(C)=O` [Ac-Leu-Leu-PheCH3] here?
**A.** Its inhibition of chymotrypsin is “no inhibition was observed”.

**Q.** With `CC(=O)[C@H](CC(C)C)NC(=O)[C@H](C)NC(=O)CNC(=O)[C@H](Cc1ccccc1)NC(=O)OC(C)(C)C` [Boc-Phe-Gly-Ala-LeuCH3, reference compound] as the molecule, how does the “activity in the viral cleavage assay” value [1] read?
**A.** Its value is “failed to show activity”.

**Q.** For `COC(=O)CCC(=O)N[C@@H](Cc1ccccc1)C(=O)NCC(=O)N[C@@H](C)C(=O)N[C@@H](CC(C)C)C(C)=O` [MeOSuc-Phe-Gly-Ala-LeuCH3, MeOSuc--Phe--Gly--Ala--LeuCH3], which “activity in the viral cleavage assay” value [2] is on record?
**A.** Its value is “demonstrated activity”.

**Q.** What about the “Protease-Inhibiting Activity of Selected Peptide Chloromethyl Ketones: Activity” value [1] of the same molecule?
**A.** The value was “+++ (key: -: no activity; +/-: low activity; +: active at 100 μg/mL; ++: active at 50 μg/mL; +++: active at 10 μg/mL; ++++: active at <5 μg/mL)”.

**Q.** What about the “activity in the viral cleavage assay” value (human rhinovirus type 1A) of the same molecule?
**A.** The value was “demonstrated activity”.

**Q.** Which “Protease-Inhibiting Activity of Selected Peptide Chloromethyl Ketones: Activity” value [1] does the source give for `COC(=O)CCC(=O)N[C@@H](Cc1ccccc1)C(=O)NCC(=O)N[C@@H](CC(C)C)C(=O)N[C@@H](CC(C)C)C(C)=O` [MeOSuc-Phe-Gly-Leu-LeuCH3] here?
**A.** Its value is “+/-”.

**Q.** Which “inhibition of subtilisin BPN' (rate, among the peptide chloromethyl ketones tested)” value (subtilisin BPN') does the source give for `CC(=O)N[C@@H](Cc1ccccc1)C(=O)NCC(=O)N[C@@H](C)C(=O)NC(CC(C)C)C(=O)CCl` (stereo partly drawn) [Peptide Analog 3, acetyl-L-phenylalanyl-L-glycyl-L-alanyl-L-leucyl chloromethyl ketone] (Ac-FGA[ξL]-CH2Cl) here?
**A.** Its value is “fastest inhibitor”.

**Q.** Which results are given for `CC(=O)[C@H](CC(C)C)NC(=O)[C@H](C)NC(=O)CNC(=O)[C@H](Cc1ccccc1)NC(=O)OCc1ccccc1` [Z-Phe-Gly-Ala-LeuCH3]?
**A.** plaque reduction compared to control plates (Poliovirus type 2): > 90%; plaque reduction compared to control plates (rhinovirus type 1A): > 90%; cytotoxicity (HeLa cells): No cytotoxicity was observed; Protease-Inhibiting Activity of Selected Peptide Chloromethyl Ketones: Activity [1]: +++ (key: -: no activity; +/-: low activity; +: active at 100 μg/mL; ++: active at 50 μg/mL; +++: active at 10 μg/mL; ++++: active at <5 μg/mL)

**Q.** Which “Protease-Inhibiting Activity of Selected Peptide Chloromethyl Ketones: Activity” value [1] does the source give for `CC(=O)[C@H](CC(C)C)NC(=O)[C@H](CC(C)C)NC(=O)CNC(=O)[C@H](Cc1ccccc1)NC(=O)OCc1ccccc1` [Z-Phe-Gly-Leu-LeuCH3, N-carbobenzoxy-L-phenylalanyl-L-glycyl-L-leucyl-L-leucyl methyl ketone] here?
**A.** Its value is “+++ (key: -: no activity; +/-: low activity; +: active at 100 μg/mL; ++: active at 50 μg/mL; +++: active at 10 μg/mL; ++++: active at <5 μg/mL)”.
